Reference: ChEMBL document CHEMBL1201861, “Genomics of Drug Sensitity in Cancer screening data, Wellcome Trust Sanger Institute”

Assays:
[1] = system: COR-L279; test: SANGER: Inhibition of human COR-L279 cell growth in a cell viability assay.; type: functional, cell-based
[2] = system: DG-75; test: cells; type: functional, cell-based; details: Homo sapiens;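 also: growth inhibition of DG-75 cells, read out with a cell viability assay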
Description: SANGER: Inhibition of human DG-75 cell growth in a cell viability assay.

[3] = system: EB-3; test: cells; type: functional, cell-based; details: Homo sapiens;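 also: human EB-3 cells, growth inhibition read out via a cell viability assay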
Description: SANGER: Inhibition of human EB-3 cell growth in a cell viability assay.

[4] = system: IST-SL2; test: cells; type: functional, cell-based; details: Homo sapiens;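 also: growth inhibition of human IST-SL2 cells, read out by a cell viability assay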
Description: SANGER: Inhibition of human IST-SL2 cell growth in a cell viability assay.

[5] = system: LB647-SCLC; test: cells; type: functional, cell-based; details: Homo sapiens;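 also: cell growth inhibition, read out by a viability assay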
Description: SANGER: Inhibition of human LB647-SCLC cell growth in a cell viability assay.

[6] = system: LC4-1; test: cells; type: functional, cell-based; details: Homo sapiens;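 also: growth inhibition of LC4-1 cells, read out with a cell viability assay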
Description: SANGER: Inhibition of human LC4-1 cell growth in a cell viability assay.

[7] = system: LOUCY; test: cells; type: functional, cell-based; details: Homo sapiens;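 also: growth inhibition of human LOUCY cells, read out with a cell viability assay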
Description: SANGER: Inhibition of human LOUCY cell growth in a cell viability assay.

[8] = system: MC-CAR; test: cells; type: functional, cell-based; details: Homo sapiens;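 also: growth inhibition of the human MC-CAR cell line, read out by a cell viability assay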
Description: SANGER: Inhibition of human MC-CAR cell growth in a cell viability assay.

[9] = system: MDA-MB-134-VI; test: cells; type: functional, cell-based; details: Homo sapiens
Description: SANGER: Inhibition of human MDA-MB-134-VI cell growth in a cell viability assay.

[10] = system: NCI-H128; test: SANGER: Inhibition of human NCI-H128 cell growth in a cell viability assay.; type: functional, cell-based
[11] = system: NCI-H2171; test: cells; type: functional, cell-based; details: Homo sapiens;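 also: growth inhibition of human NCI-H2171 cells, read out by a cell viability assay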
Description: SANGER: Inhibition of human NCI-H2171 cell growth in a cell viability assay.

[12] = system: NCI-H322M; test: cells; type: functional, cell-based; details: Homo sapiens;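 also: cell viability assay measuring inhibition of growth of human NCI-H322M cells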
Description: SANGER: Inhibition of human NCI-H322M cell growth in a cell viability assay.

[13] = system: NCI-H64; test: cells; type: functional, cell-based; details: Homo sapiens;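 also: growth inhibition of NCI-H64 cells, read out with a cell viability assay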
Description: SANGER: Inhibition of human NCI-H64 cell growth in a cell viability assay.

[14] = system: NCI-H889; test: cells; type: functional, cell-based; details: Homo sapiens;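 also: cell growth inhibition of the cell line, read out with a viability assay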
Description: SANGER: Inhibition of human NCI-H889 cell growth in a cell viability assay.

[15] = system: SNU-16; test: cells; type: functional, cell-based; details: Homo sapiens;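 also: growth inhibition of human SNU-16 cells, determined with a cell viability readout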
Description: SANGER: Inhibition of human NCI-SNU-16 cell growth in a cell viability assay.

[16] = system: SCC-3; test: cells; type: functional, cell-based; details: Homo sapiens;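 also: cell viability assay measuring inhibition of SCC-3 cell growth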
Description: SANGER: Inhibition of human SCC-3 cell growth in a cell viability assay.

[17] = system: SIG-M5; test: cells; type: functional, cell-based; details: Homo sapiens;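 also: cell viability assay read-out, measuring how strongly growth of cultured human SIG-M5 cells is inhibited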
Description: SANGER: Inhibition of human SIG-M5 cell growth in a cell viability assay.

[18] = system: SIMA; test: cells; type: functional, cell-based, Homo sapiens; details: Homo sapiens, SIMA;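 also: growth inhibition of SIMA cells, measured with a cell viability readout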
Description: SANGER: Inhibition of human SIMA cell growth in a cell viability assay.

[19] = system: SKM-1; test: SANGER: Inhibition of human SKM-1 cell growth in a cell viability assay.; type: functional, cell-based
[20] = system: SR; test: cells; type: functional, cell-based; details: Homo sapiens
Description: SANGER: Inhibition of human SR cell growth in a cell viability assay.

[21] = system: ST486; test: SANGER: Inhibition of human ST486 cell growth in a cell viability assay.; type: functional, cell-based
[22] = system: BC1 cell line; test: SANGER: Inhibition of human BC-1 cell growth in a cell viability assay.; type: functional, cell-based
[23] = system: CAL-148; test: cells; type: functional, cell-based; details: Homo sapiens
Description: SANGER: Inhibition of human CAL-148 cell growth in a cell viability assay.

[24] = system: TE-15; test: cells; type: functional, cell-based; details: Homo sapiens;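 also: cell viability readout of growth inhibition in TE-15 cells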
Description: SANGER: Inhibition of human TE-15 cell growth in a cell viability assay.

[25] = system: TUR; test: cells; type: functional, cell-based; details: Homo sapiens;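 also: growth inhibition of human TUR cells, read out with a cell viability assay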
Description: SANGER: Inhibition of human TUR cell growth in a cell viability assay.

[26] = system: CHP-126; test: cells; type: functional, cell-based; details: Homo sapiens
Description: SANGER: Inhibition of human CHP-126 cell growth in a cell viability assay.

[27] = system: D-423MG; test: cells; type: functional, cell-based; details: Homo sapiens
Description: SANGER: Inhibition of human D-423MG cell growth in a cell viability assay.

[28] = system: ECC10; test: cells; type: functional, cell-based; details: Homo sapiens;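 also: growth inhibition of ECC10 cells, read out by a cell viability assay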
Description: SANGER: Inhibition of human ECC10 cell growth in a cell viability assay.

[29] = system: H-EMC-SS; test: cells; type: functional, cell-based; details: Homo sapiens
Description: SANGER: Inhibition of human H-EMC-SS cell growth in a cell viability assay.

[30] = system: H9; test: cells; type: functional, cell-based; details: Homo sapiens
Description: SANGER: Inhibition of human H9 cell growth in a cell viability assay.

[31] = system: HSC-4; test: cells; type: functional, cell-based, Homo sapiens; details: Homo sapiens, HSC-4;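 also: growth inhibition of human HSC-4 cells, read out with a cell viability assay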
Description: SANGER: Inhibition of human HSC-4 cell growth in a cell viability assay.

[32] = system: LU-135; test: cells; type: functional, cell-based; details: Homo sapiens
Description: SANGER: Inhibition of human LU-135 cell growth in a cell viability assay.

[33] = system: NBsusSR; test: cells; type: functional, cell-based; details: Homo sapiens;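 also: growth inhibition of the human cell line, read out with a cell viability assay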
Description: SANGER: Inhibition of human NBsusSR cell growth in a cell viability assay.

[34] = system: NCI-H2009; test: cells; type: functional, cell-based, Homo sapiens; details: Homo sapiens, NCI-H2009;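 also: cell viability assay measuring inhibition of NCI-H2009 cell growth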
Description: SANGER: Inhibition of human NCI-H2009 cell growth in a cell viability assay.

[35] = system: NCI-H630; test: cells; type: functional, cell-based, Homo sapiens; details: Homo sapiens, NCI-H630;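 also: growth inhibition of NCI-H630 cells, read out with a cell viability assay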
Description: SANGER: Inhibition of human NCI-H630 cell growth in a cell viability assay.

[36] = system: SJRH30; test: cells; type: functional, cell-based; details: Homo sapiens;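 also: growth inhibition of human SJRH30 cells, read out with a cell viability assay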
Description: SANGER: Inhibition of human SJRH30 cell growth in a cell viability assay.

[37] = system: BALL-1; test: cells; type: functional, cell-based; details: Homo sapiens;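 also: growth inhibition of BALL-1 cells, read out with a cell viability assay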
Description: SANGER: Inhibition of human BALL-1 cell growth in a cell viability assay.

For `C=C1C(=O)O[C@@H]2C3O[C@]3(C)CC/C=C(\C)CC[C@@H]12` (stereo partly drawn), which IC50 [1] is on record?
Its IC50 is > 5000 nM.

And the IC50 [2]?
The IC50 was > 5000 nM.

And the IC50 [3]?
The IC50 was > 5000 nM.

And the IC50 [4]?
Its IC50 is > 5000 nM.

What about the IC50 [5] of the same compound?
The IC50 was > 5000 nM.

What about the IC50 [6] of the same compound?
Its IC50 is > 5000 nM.

What about the IC50 [7] of the same compound?
The IC50 was > 5000 nM.

What about the IC50 [8] of the same compound?
Its IC50 is > 5000 nM.

What about the IC50 [9] of the same compound?
The IC50 was > 5000 nM.

What about the IC50 [10] of the same compound?
Its IC50 is > 5000 nM.

And the IC50 [11]?
The IC50 was > 5000 nM.

What about the IC50 [12] of the same compound?
Its IC50 is > 5000 nM.

What about the IC50 [13] of the same compound?
Its IC50 is > 5000 nM.

What about the IC50 [14] of the same compound?
The IC50 was > 5000 nM.

What about the IC50 [15] of the same compound?
Its IC50 is > 5000 nM.

What about the IC50 [16] of the same compound?
The IC50 was 2800 nM.

What about the IC50 [17] of the same compound?
The IC50 was > 5000 nM.

What about the IC50 [18] of the same compound?
The IC50 was > 5000 nM.

What about the IC50 [19] of the same compound?
The IC50 was > 5000 nM.

And the IC50 [20]?
The IC50 was > 5000 nM.

What about the IC50 [21] of the same compound?
Its IC50 is > 5000 nM.

And the IC50 [22]?
The IC50 was > 5000 nM.

And the IC50 [23]?
Its IC50 is > 5000 nM.

And the IC50 [24]?
Its IC50 is > 5000 nM.

What about the IC50 [25] of the same compound?
The IC50 was > 5000 nM.

And the IC50 [26]?
The IC50 was > 5000 nM.

How did the IC50 [27] turn out when `CN(C)C/C=C/C(=O)Nc1cc2c(Nc3ccc(F)c(Cl)c3)ncnc2cc1O[C@H]1CCOC1` [AFATINIB] was run?
Its IC50 is > 500 nM.

What about the IC50 [28] of the same compound?
The IC50 was > 500 nM.

And the IC50 [29]?
The IC50 was > 500 nM.

And the IC50 [30]?
Its IC50 is 71.3 nM.

And the IC50 [31]?
Its IC50 is 17.5 nM.

What about the IC50 [32] of the same compound?
The IC50 was > 500 nM.

What about the IC50 [33] of the same compound?
The IC50 was > 500 nM.

And the IC50 [34]?
Its IC50 is > 500 nM.

And the IC50 [35]?
Its IC50 is > 500 nM.

What about the IC50 [36] of the same compound?
Its IC50 is > 500 nM.

And the IC50 [37]?
The IC50 was > 500 nM.

`O=C(NOCC1CC1)c1ccc(F)c(F)c1Nc1ccc(I)cc1Cl` [CI-1040] was tested. Which IC50 [27] did it give?
Its IC50 is 3080 nM.

And the IC50 [28]?
The IC50 was 8030 nM.

And the IC50 [29]?
The IC50 was 1300 nM.

And the IC50 [30]?
The IC50 was 22.8 nM.

And the IC50 [31]?
Its IC50 is 244 nM.

What about the IC50 [32] of the same compound?
The IC50 was 7560 nM.

What about the IC50 [33] of the same compound?
Its IC50 is 5570 nM.

What about the IC50 [34] of the same compound?
Its IC50 is > 10000 nM.

And the IC50 [35]?
Its IC50 is > 10000 nM.

And the IC50 [36]?
The IC50 was > 10000 nM.

What about the IC50 [37] of the same compound?
Its IC50 is > 10000 nM.

Which IC50 [27] does the source give for `Nc1ccn([C@@H]2O[C@H](CO)[C@@H](O)[C@@H]2O)c(=O)n1` [CYTARABINE] here?
Its IC50 is 299 nM.

What about the IC50 [28] of the same compound?
The IC50 was > 2000 nM.

And the IC50 [29]?
Its IC50 is 145 nM.

What about the IC50 [30] of the same compound?
The IC50 was 391 nM.

What about the IC50 [31] of the same compound?
The IC50 was 467 nM.

What about the IC50 [32] of the same compound?
The IC50 was > 2000 nM.

And the IC50 [33]?
The IC50 was 335 nM.

What about the IC50 [34] of the same compound?
Its IC50 is > 2000 nM.

And the IC50 [35]?
Its IC50 is > 2000 nM.

What about the IC50 [36] of the same compound?
The IC50 was 683 nM.

And the IC50 [37]?
Its IC50 is > 2000 nM.

What does the source list for `CC(=O)O[C@@]12CO[C@@H]1C[C@H](O)[C@@]1(C)C(=O)[C@H](O)C3=C(C)[C@@H](OC(=O)[C@H](O)[C@@H](NC(=O)OC(C)(C)C)c4ccccc4)C[C@@](O)([C@@H](OC(=O)c4ccccc4)[C@H]21)C3(C)C` [DOCETAXEL]?
IC50 [27]: 1.3 nM; IC50 [28]: 4.6 nM; IC50 [29]: > 10 nM; IC50 [30]: 1.24 nM; IC50 [31]: 0.239 nM; IC50 [32]: > 10 nM; IC50 [33]: 1.1 nM; IC50 [35]: > 10 nM; IC50 [37]: > 10 nM
